Source: patent US9254261B2, “Stable quick dissolving dosage form comprising amoxicillin and clavulanic acid” (Sandoz AG, priority 2014, dated 2016)

Assay: Stability of potassium clavulanate alone and in binary mixtures with excipients, stressed storage 7 days at 60° C.
Format: physicochemical
Details: after storage 7 days at 60° C.; control sample, no excipient
Method: In particular, the effect of different excipients and different mixture preparation conditions on the stability of the active ingredients was analyzed. […] In addition, two sets of compatibility studies with various excipients were conducted to investigate the influence of excipients on the stability of clavulanic acid and amoxicillin in the final dosage form. In the first study, a total of eight binary (i.e. two component) mixtures were prepared, each combining: […] (a) silicified microcrystalline cellulose, (b) low moisture silicified microcrystalline cellulose, having a moisture content of less than about 3.0%, (c) crospovidone, or (d) mannitol. […] After storage at a temperature of about 60° C. for about 7 days, each of the mixtures was then assayed to determine the amount of active ingredient remaining. Similarly, in the second study, a total of eight binary mixtures were prepared, each combining: […] (a) silicified microcrystalline cellulose, (b) low moisture silicified microcrystalline cellulose, (c) crospovidone, or (d) colloidal silicon dioxide. […] Further, each of the binary mixtures in the second study was prepared in a reduced moisture environment at a normal relative humidity (RH) of less than 30%. After storage at a temperature of about 60° C. for about 7 days, each of the mixtures was then assayed to determine the amount of active ingredient remaining.

SMILES: O=C(O)[C@H]1/C(=C/CO)O[C@@H]2CC(=O)N21 [Clavulanic acid (CA), potassium clavulanate]
- Assay of clavulanic acid (%): 94%
